Test results from patent US20070014845A1, “Liposomal delivery vehicle for hydrophobic drugs” (priority 2005, published 2007).
Blank lines part the entries; values can stand above or below the compound they belong to.

Experiments:
[1] = cited from earlier work
[2] = Drug concentration of filtered drug/cyclodextrin hydration solutions (HPLC); format: physicochemical; details: for drug concentration of filtered cyclodextrin solution: 10 mM histidine, 15 mM NaCl, pH 6.8, incubated 45° C. for 2 hours; for final drug concentration assayed by HPLC: 50 w/v % hydroxypropyl-β-cyclodextrin
Method: A similar solution containing 30% cyclodextrin was prepared by dissolving 30 g of hydroxypropyl-β-cyclodextrin in a 100 mL of water. The solution also contained 10 mM histidine and 15 mM NaCl. The final osmolality was 451 mOsm/kg (Wescor Osmometer) and the pH was 6.8. Drug (RWJ-425457) was added to the cyclodextrin solution, incubated (45° C. for 2 hours), and filtered, to yield a drug concentration of 9.9 mg/mL.
A similar solution containing 20% cyclodextrin was prepared by dissolving 20 g of hydroxypropyl-β-cyclodextrin in a 100 mL of buffer (10 mM histidine and 15 mM NaCl). The final osmolality was 199 mOsm/kg (Wescor Osmometer) and the pH was 6.8. Drug (RWJ-425457) was added to the cyclodextrin solution, incubated (45° C. for 2 hours) and filtered, to yield a drug concentration of 4.8 mg/mL.
A liposome formulation with no cholesterol, formulation no. 11, was also prepared as follows. A lipid mixture of HSPC/mPEG-DSPE 95:5 mol/mol (11.3 g HSPC and 2.1 g mPEG-DSPE) was solubilized in 10 mL ethanol at about 65 ° C. A 50% hydroxypropyl-β-cyclodextrin solution was made by solubilizing 50 g of the cyclodextrin in a total volume of 100 mL water. The osmolality was 720 mOsm/kg and the pH was 7.4. In a separate container 1.004 g of drug (RWJ416457) was placed in 100 mL of the 50 w/v % cyclodextrin solution. The mixture was stirred for 1 hour at 45° C. and then 3 hours at room temperature followed by filtration to removw any un-dissolved drug in the solution. The final drug concentration assayed by HPLC was 7.58 mg/mL and the osmolality of the hydration medium was 771 mOsm/kg. The lipid solution was then mixed with 90 mL of the drug/cyclodextrin solution (pre-warmed to 65° C.) followed by stirring at 65° C. for 1 hour to form a suspension of liposomes, identified as formulation no. 11.
A 50% hydroxypropyl-β-cyclodextrin solution was made by solubilizing 50.0 g of the cyclodextrin in a total volume of 100 mL water. The final osmolality was 720 mOsm/kg (Wescor Osmometer) and the pH was 7.4. In a separate container 1.004 g of drug (RWJ416457) was placed in 100 mL of the 50 w/v % cyclodextrin solution. The mixture was stirred for 4 hours at room temperature followed by filtration to remove any drug in the external solution. The final drug concentration assayed by HPLC was 7.58 mg/mL and osmolality was 771 mOsm/kg.

[3] = Solubility of RWJ-416457 in hydroxypropyl-β-cyclodextrin and sulfobutylether-β-cyclodextrin solutions (HPLC); format: physicochemical
Method: Various liposomal formulations were prepared to perform supporting and illustrative studies. […] The solubility of the drug in the cyclodextrin solutions was determined.
The solubility of an antimicrobial oxazolidinone drug identified as RWJ-416457 in 40 w/v % hydroxylpropyl-β-cyclodextrin and in 20 w/v % sulfobutylether-β-cyclodextrin under various conditions of pH, temperature, and incubation time was determined as follows. About 15 mgs of drug was added to 5 mL of each cyclodextrin solution followed by incubation under one of three conditions: (1) with stirring at 45° C. for 2 hours; (2) with stirring at 45° C. for 2 hours followed by stirring at room temperature (25° C.) for 3 days; or (3) with stirring at room temperature (25° C.) for 3 days. After incubation, any non-solubilized drug crystals were removed either by centrifugation using a bench top centrifuge at 3000 rpm or by filtration using a hand-held syringe with a filter with 0.2 μm pore size. The drug concentration of the supernatant or the filtrate was then determined by high performance liquid chromatography (HPLC).

Compound: 2-Hydroxypropyl-β-cyclodextrin
Solubility in water [1]: >600000 µg/mL

Compound: 2-Hydroxypropyl-γ-cyclodextrin
Solubility in water [1]: >500000 µg/mL

drug concentration of filtered cyclodextrin solution ([2]; 20% hydroxypropyl-β-cyclodextrin): 4800 µg/mL | drug concentration of filtered cyclodextrin solution ([2]; 30% hydroxypropyl-β-cyclodextrin): 9900 µg/mL | final drug concentration assayed by HPLC ([2]; stirred 1 hour at 45° C. then 3 hours at room temperature): 7.58 mg/mL | final drug concentration assayed by HPLC ([2]; stirred 4 hours at room temperature): 7.58 mg/mL | Solubility of RWJ-416457 ([3]; Sample 1, pH 8.54, HP-β-CD 40%, 3 days RT, Filter): 8130 µg/mL | Solubility of RWJ-416457 ([3]; Sample 2, pH 8.54, HP-β-CD 40%, 45° C. 2 hrs + 3 days RT, Filter): 9460 µg/mL | Solubility of RWJ-416457 ([3]; Sample 2, pH 8.54, HP-β-CD 40%, 45° C. 2 hrs, Centrifuge): 9370 µg/mL | Solubility of RWJ-416457 ([3]; Sample 2, pH 8.54, HP-β-CD 40%, 45° C. 2 hrs, Filter): 9260 µg/mL | Solubility of RWJ-416457 ([3]; Sample 3, pH 3.21, HP-β-CD 40%, 3 days RT, Filter): 7600 µg/mL | Solubility of RWJ-416457 ([3]; Sample 4, pH 3.21, HP-β-CD 40%, 45° C. 2 hrs + 3 days RT, Filter): 9080 µg/mL | Solubility of RWJ-416457 ([3]; Sample 4, pH 3.21, HP-β-CD 40%, 45° C. 2 hrs, Centrifuge): 9230 µg/mL | Solubility of RWJ-416457 ([3]; Sample 4, pH 3.21, HP-β-CD 40%, 45° C. 2 hrs, Filter): 9160 µg/mL | Solubility of RWJ-416457 ([3]; Sample 5, pH 4.58, HP-β-CD 40%, 3 days RT, Filter): 7210 µg/mL | Solubility of RWJ-416457 ([3]; Sample 6, pH 4.58, HP-β-CD 40%, 45° C. 2 hrs + 3 days RT, Filter): 9100 µg/mL | Solubility of RWJ-416457 ([3]; Sample 6, pH 4.58, HP-β-CD 40%, 45° C. 2 hrs, Centrifuge): 9170 µg/mL | Solubility of RWJ-416457 ([3]; Sample 6, pH 4.58, HP-β-CD 40%, 45° C. 2 hrs, Filter): 9160 µg/mL | Solubility of RWJ-416457 ([3]; Sample 7, pH 6.94, SBE-β-CD 20%, 45° C. 2 hrs + 3 days RT, Filter): 4450 µg/mL | Solubility of RWJ-416457 ([3]; Sample 7, pH 6.94, SBE-β-CD 20%, 45° C. 2 hrs, Centrifuge): 4750 µg/mL | Solubility of RWJ-416457 ([3]; Sample 7, pH 6.94, SBE-β-CD 20%, 45° C. 2 hrs, Filter): 4550 µg/mL | drug solubility ([3]; in 20% sulfobutylether-β-cyclodextrin (summary of Example 1A)): above 4.5 mg/mL | solubility ([3]; in 20 w/v % sulfobutylether-β-cyclodextrin at 45° C.): about 4.5 mg/mL | drug solubility ([3]; in 40 w/v % hydroxypropyl-β-cyclodextrin (summary of Example 1A)): above 9 mg/mL | solubility ([3]; in 40 w/v % hydroxypropyl-β-cyclodextrin at 45° C.): about 9.1 mg/mL | solubility ([3]; in 40 w/v % hydroxypropyl-β-cyclodextrin at room temperature): about 7.6 mg/mL
Compound: CC(=O)NC[C@H]1CN(c2ccc(N3Cc4cn(C)nc4C3)c(F)c2)C(=O)O1 [RWJ-416457]

Compound: OC[C@H]1O[C@@H]2O[C@H]3[C@H](O)[C@@H](O)[C@@H](O[C@H]4[C@H](O)[C@@H](O)[C@@H](O[C@H]5[C@H](O)[C@@H](O)[C@@H](O[C@H]6[C@H](O)[C@@H](O)[C@@H](O[C@H]7[C@H](O)[C@@H](O)[C@@H](O[C@H]8[C@H](O)[C@@H](O)[C@@H](O[C@H]9[C@H](O)[C@@H](O)[C@@H](O[C@H]%10[C@H](O)[C@@H](O)[C@@H](O[C@H]1[C@H](O)[C@H]2O)O[C@@H]%10CO)O[C@@H]9CO)O[C@@H]8CO)O[C@@H]7CO)O[C@@H]6CO)O[C@@H]5CO)O[C@@H]4CO)O[C@@H]3CO [δ-cyclodextrin]
water solubility (at 25° C., g/100 mL) ([1]; at 25° C.): 8.19 g/100 mL

Compound: Randomly Methylated β-cyclodextrin
Solubility in water [1]: >500000 µg/mL

Compound: β-Cyclodextrin sulfobutyl ether sodium salt
Solubility in water [1]: >500000 µg/mL
